According to the NIST ThermoML archive (doi:10.1021/je901020a):
Numbers after ± are expanded uncertainties.

Key:
[1] = xn = mol fraction of the nth substance listed; conditions: 101 kPa, Liquid; for speed of sound: Pulse-echo method
[2] = refractive index (Na D-line) (dimensionless); xn = mol fraction of the nth substance listed; conditions: 101 kPa, Liquid, Standard Abbe refractometry

CC1CCCCC1 [methylcyclohexane] + Cc1ccc(C)cc1
Conditions | mass density, [1] [kg/m3] | refractive index, [2] | speed of sound, [1] [m/s]
298.15 K, x1 = 0.0513 | 851.4 ± 0.5 | 1.48906 ± 0.001 | 1303 ± 2
298.15 K, x1 = 0.0979 | 846.7 ± 0.5 | 1.48531 ± 0.0011 | 1297 ± 2
298.15 K, x1 = 0.1917 | 837.2 ± 0.5 | 1.47789 ± 0.0011 | 1285 ± 2
298.15 K, x1 = 0.3009 | 826.5 ± 0.5 | 1.46944 ± 0.0011 | 1272 ± 2
298.15 K, x1 = 0.3971 | 817.3 ± 0.5 | 1.46214 ± 0.0011 | 1262 ± 2
298.15 K, x1 = 0.4963 | 808 ± 0.6 | 1.4548 ± 0.0011 | 1252 ± 2
298.15 K, x1 = 0.5987 | 798.8 ± 0.6 | 1.44757 ± 0.0011 | 1243 ± 2
298.15 K, x1 = 0.6966 | 789.9 ± 0.6 | 1.44052 ± 0.0011 | 1234 ± 2
298.15 K, x1 = 0.7958 | 781.6 ± 0.6 | 1.43389 ± 0.0011 | 1227 ± 2
298.15 K, x1 = 0.8922 | 773.4 ± 0.6 | 1.42739 ± 0.0011 | 1221 ± 2
298.15 K, x1 = 0.9501 | 768.9 ± 0.6 | 1.42377 ± 0.0011 | 1217 ± 2
298.15 K, x1 = 1 | 765 ± 0.6 | 1.42062 ± 0.001 | 1215 ± 2
313.15 K, x1 = 0.0506 | 838.4 ± 0.5 | 1.48121 ± 0.001 | 1242 ± 2
313.15 K, x1 = 0.1051 | 832.9 ± 0.5 | 1.4771 ± 0.0011 | 1234 ± 2
313.15 K, x1 = 0.204 | 823.1 ± 0.5 | 1.46914 ± 0.0011 | 1221 ± 2
313.15 K, x1 = 0.3096 | 812.6 ± 0.6 | 1.46083 ± 0.0011 | 1209 ± 2
313.15 K, x1 = 0.4064 | 803.4 ± 0.6 | 1.45361 ± 0.0011 | 1198 ± 2
313.15 K, x1 = 0.5061 | 794 ± 0.6 | 1.44635 ± 0.0011 | 1188 ± 2
313.15 K, x1 = 0.605 | 785.1 ± 0.6 | 1.43928 ± 0.0011 | 1179 ± 2
313.15 K, x1 = 0.7057 | 776.2 ± 0.6 | 1.43227 ± 0.0011 | 1170 ± 2
313.15 K, x1 = 0.8112 | 767.2 ± 0.6 | 1.42509 ± 0.0011 | 1162 ± 2
313.15 K, x1 = 0.9095 | 759 ± 0.6 | 1.41853 ± 0.0011 | 1155 ± 2
313.15 K, x1 = 0.9599 | 755 ± 0.6 | 1.41538 ± 0.0011 | 1152 ± 2
313.15 K, x1 = 1 | 751.9 ± 0.6 | 1.41274 ± 0.001 | 1150 ± 2
